Data on one compound can be found in patent US20010010814A1, “[…] ENCODING PRO-APOPTOTIC BAX GENE AND USES THEREOF” (priority 1998, published 2001).

As usually defined, the IC50 is the midpoint of a concentration-inhibition curve.

Assay [1] has as its system SW626 cells. The assay is described as follows: MTS cell viability assay, SW626. It counts as cell-based. Particulars: Homo sapiens, SW626, 48 h, read-out: IC50 of taxol. As for the experimental part: (§1) The replication-incompetent adenoviral type 5 recombinant vectors encoding bax (Ad/Bax), and Cre recombinase (Ad/Cre), were generated as described. Ad/LacZ, encoding the E. coli LacZ gene, was provided by Robert Gerald (The Center for Transgene Technology and Gene Therapy, Leuven. Belgium). All recombinant adenoviruses were propagated in 293 cells and purified by centrifugation in CsCl gradients by a standard protocol. For viral infection in dishes, the cells were plated in 6 or 96 wells the day before the experiment. The viruses were then added at a designed multiplicity of infection (moi) and incubated for 1 to 2 hours. […]
(§2) Cells were seeded in either 6-well or 96-well plates 24 hours before viral infection. […] Cell viability was determined using a calorimetric method with 3-(4,5-dimehtylthiazol-2-yl)-5-(3-carboxymethoxyphenyl)-2-(4-sulfophenyl)-2H-tetrazolium (MTS) according to the instructions of the manufacturer (Promega). […]
(§3) To determine the cytotoxic effects of Bax, five ovarian cancer cell lines were co-infected with Ad/Bax and Ad/Cre or Ad/lacZ and Ad/Cre at ratio of 5 to 1 at a total moi of 100. After 48 hours, cell viability was determined by MTS assays (FIG. 11). […]
(§4) Stable overexpression of Bax in some cancer cell lines synergizes the killing effect of chemotherapy or radiotherapy. […] Cell viability was measured by an MTS assay. […]
(In general: Tetrazolium assays rely on reduction of a dye to a coloured formazan, in cell work by metabolically active cells.)

Assay [2] concerns SKOV3.ip1 cells. Description: MTS cell viability assay, SKOV3.ip1. It counts as cell-based. Particulars: Homo sapiens, 48 h, read-out: IC50 of taxol. As for the experimental part: as §1, §2, §3, §4
Assay [3] concerns primary ovarian cancer cells from ascites of patients. Description: MTS cell viability assay, primary ovarian cancer cells. It counts as cell-based, human. As for the experimental part:
Primary ovarian cancer cells were isolated by affinity purification from ascites obtained from patients with ovarian cancer. Fresh ascites was centrifuged to collect cells in suspension. The cells were then washed and resuspended in PBS with 0.1% BSA. The CC49 antibody (provided by Dr. Jeffrey Schlom, NIH, Bethesda, Md.), which specifically recognizes the pancarcinomatous antigen TAG-72, was added to the cell suspension at a concentration of 1 μg/10^7 cells, and incubated at 4° C. for one hour. To isolate the immuno-complex formed by the CC49 antibody and the TAG-72 expressing tumor cells, magnetic Dynabeads (Dynal Inc. Lake success, N.Y.) coated with a secondary anti-panmouse IgG antibody were added at a ratio of 4 beads/cell, according to the protocol of the manufacturer. The bead-targeted complexes were then washed and captured with a magnetic particle concentrator (Dynal Inc.). Finally, the purified cells were released from the beads by brief trypsinization and recovered in RPMI complete medium.
as §2

[4] abbreviates: combined treatment with Bax (Ad/Bax plus Ad/Cre, moi 100).

Like-named read-outs stand apart in the source and are kept apart here.

In the case of `CC(=O)O[C@H]1C(=O)[C@@]2(C)[C@H]([C@H](OC(=O)c3ccccc3)[C@]3(O)C[C@H](OC(=O)[C@H](O)[C@@H](NC(=O)c4ccccc4)c4ccccc4)C(C)=C1C3(C)C)[C@]1(OC(C)=O)CO[C@@H]1C[C@@H]2O` [taxol], the IC50 in assay [1] (setting [4]) was found to be 5 µg/mL; in assay [1] (control cells), 31 µg/mL; in assay [2] (setting [4]), 13 µg/mL; in assay [2] (control cells), 39 µg/mL. Moreover, the “cell death (MTS)” value in assay [3] (taxol 20 μg/ml alone, 48 hours) is recorded as 15%; in assay [3] (taxol 20 μg/ml combined with Bax (Ad/Bax and Ad/Cre, 200 moi)), “over 50%”.
